Values of other authors as cited in patent US8257915B2, “Farnesyltransferase inhibitors for treatment of laminopathies, cellular aging and atherosclerosis” (Progeria Research Foundation, Inc., priority 2002, dated 2012).
Like-named read-outs stand apart in the source and are kept apart here.

Conditions: cited from earlier work

Cn1cncc1[C@@](N)(c1ccc(Cl)cc1)c1ccc2c(c1)c(-c1cccc(Cl)c1)cc(=O)n2C [tipifarnib]
tolerability (Phase III trials, including trials involving children): well tolerated
tolerability (clinical trials): well tolerated
